Marks after values point to notes of the source that are not given here.
Experiments:
NFkB = NFkB translocation (p65 immunostaining) and kB-luciferase reporter activity in human SMCs; type: cell-based
Description: In cells which had been transfected with a reporter construct which has three consensus kB DNA elements fused to the luciferase gene, the amount of light which was produced when the cell lysate was exposed to luciferin and ATP was proportional to NFkB activity.

[1] = cited from earlier work; for covalent (hepatic) DNA adducts: rat, in vivo; for long-term carcinogenicity: rats
[2] = rats; cited from earlier work
[3] = Serum lipid and lipoprotein profile of apoE knockout mice; type: in vivo, mouse; settings: apo(E)−/− mouse
Method: The effect of each treatment on the lipid profile of each group of mice was determined by measuring the cholesterol and triglyceride. Blood from a terminal bleed was collected in a polypropylene tube, allowed to clot at room temperature for 2 hours and then spun (1,000×g; 5 minutes). The serum supernatant was aliquoted and stored at −20° C. until assayed. Total cholesterol and total triglycerides were determined for each mouse using the cholesterol oxidase and glycerol kinase UV end-point enzymatic methods respectively (Sigma Diagnostics).

[4] = TMX 40 mg/day for 10 days in TVD patients: plasma lipids, Lp(a), PAI-1
Description: Patients with triple vessel disease (TVD) were defined as individuals having at least 50% stenosis of all three coronary arteries by angiography, which was confirmed by two independent observers. All had stable angina, with no myocardial infarction in the previous three months. Patients with unstable angina, poor left ventricular function, ventricular hypertrophy or diabetes were excluded.
Blood samples were taken and plasma prepared before and during the treatment period, and these samples were analyzed for TGF-beta, Lp(a), PAI-1 and lipoprotein profiles. Patients were asked to fast overnight prior to samples of blood being drawn between 9 am. and 10 a.m. the following morning. Blood samples were drawn by venepuncture of the antecubital vein with no tourniquet applied using a 21 gauge butterfly needle. Half the blood was allowed to clot for 2 hours at room temperature in polypropylene tubes. The clot was spun down (1,500×g; 15 minutes) and aliquots of the serum was stored at −100° C. The remaining blood was dispensed into Diatube H tubes (Diagnostica Stago) and cooled on ice for 15 minutes. Blood cells and platelets were spun down (6,000×g; 30 minutes) and the middle third of the supernatant was taken, carefully avoiding disturbing the pellet. This platelet-poor plasma was stored in aliquots at −100° C. until assayed.
Total plasma triglyceride, total plasma cholesterol, HDL-cholesterol, LDL-cholesterol and VLDL-cholesterol were routinely assayed in all patients.

TGF-beta [5] = assay: TMX 40 mg/day for 10 days in TVD patients: plasma TGF-beta; type: in vivo, human
Method: Active plus acid-activatable latent (a+1) TGF-beta levels were assayed in platelet-poor plasma using seven different assay methods. There has been debate in the literature regarding the most appropriate way to measure (a+1) TGF-beta, so to avoid difficulties specific to any particular measurement method all the available methods which have been described in the literature were used. The seven methods are:
(A) A sandwich ELISA using BDA19 and BDA5 (R&D Systems) antibodies with no activation step required.
(B) The Quantikine TGF-beta1 ELISA kit (R&D Systems) using acid/urea as the activation buffer in accordance with the manufacturer's instructions
(C) The Quantikine TGF-beta1 ELISA kit (R&D Systems) using acid alone as the activation buffer
(D) The BioTrak TGF-beta1 ELISA kit (Amersham International) using acid/urea as the activation buffer
(E) The BioTrak TGF-beta1 ELISA kit (Amersham International) using acid alone as the activation buffer in accordance with the manufacturers instructions
(F) The TGF-beta1 ELISA kit (Genzyme Diagnostics) using acid/urea as the activation buffer in accordance with the manufacturer's instructions
(G) The TGF-beta1 ELISA kit Promega Corporation) using acid alone as the activation buffer in accordance with the manufacturer's instructions
Replicate aliquots of plasma taken from the same individuals at the same time were assayed by all seven methods.
The partitioning of TGF-beta between the lipoproteins and plasma proteins was analyzed by separating the lipoprotein fraction (d<[…]) from the plasma proteins by density ultracentrifugation as described hereinabove. TGF-beta levels were assayed in both fractions using the Quantikine ELISA kit, following release and activation of TGF-beta with acetic acid and urea in accordance with the manufacturer's instructions. None of the three TGF-beta ELISAs used here detected TGF-beta in the lipoprotein fraction without prior extraction/activation with acetic acid/urea.

apoE knockout mice = assay: Lipid lesion development in aortic sinus of apoE knockout mice (Oil Red O); settings: mouse aorta
Method: To determine the efficacy of combination therapy, and to provide evidence for synergism between aspirin and fish oil, 8-week-old female apoE knockout mice were fed aspirin or fish oil, or both, to assess the cardioprotective effects of modulating different components of the TGF-beta pathway.
Group A mice (n=10) were sacrificed at day 0. Group B mice (n=10) were fed normal chow. […] Group D mice (n=10) were fed chow containing 33 mg/kg/day fish oil (200 μg Pulse cod liver oil/g food, Seven Seas Ltd., which contains 0.9 g eicosapentaenoic acid (EPA), and 0.3 g docosahexaenoic acid (DHA)) and 3 mg/kg/day aspirin dissolved in water. Group E mice (n=10) were fed chow containing 33 mg/kg/day fish oil. Group F mice (n=10) were fed chow containing Zocor (simvastatin; Zocor tablets, Merck, Sharpe & Dohme) at 400 μg/kg/day (2 μg/g food).
Groups B-F were fed these regimens for 87 days. All mice were weighed daily for the first week and weekly thereafter. Food and water consumption over a 24 hour period were measured daily for the first 7 days and weekly thereafter.
After 87 days, mice in groups B-F were fasted overnight and then sacrificed. Serum, heart, lungs and aorta samples were collected at the time of sacrifice. The heart, lungs and aorta were removed from each mouse and rinsed in PBS, dabbed dry on tissue and embedded in Cryo-M-bed embedding medium (Bright Instruments, Huntington, U.K.) before snap freezing in liquid nitrogen. Frozen sections (4 μm thickness) of the aortic sinus region were prepared from the heart/lung/aorta blocks according to the sectioning strategy of Paigen et al. (Arteriosclerosis, 10, 316 (1990)). Sections on 5% gelatin-coated slides were stained for neutral lipid by the Oil Red O technique and counter-stained with fast green (Grainger et al., Nature Med., 1, 1067 (1995)).
The development of lipid-filled vascular lesions was determined by the quantitation of oil red O staining for neutral lipid deposited in the aortic sinus region. The area of lipid accumulation was measured using a calibrated microscope eye-piece, such that lipid droplets<50 μm^2 were ignored and contiguous regions of lipid staining>500 μm in area were classified as lesions.

[6] = target: T1, recombinant extracellular domain of the type II TGF-beta receptor (R2X) (Homo sapiens, UniProt P37173); assay: Binding of recombinant TGF-beta to R2X (ELISA); settings: lipoprotein equivalent to 3 mM total cholesterol added; maximal value
T1 construct: the recombinant extracellular domain of the type II TGF-beta receptor (R2X)
Method: To determine whether the TGF-beta associated with lipoprotein particles was able to bind to the type II TGF-beta signaling receptor and exert biological activity in vitro, the binding of recombinant TGF-beta to R2X was measured in the absence and presence of increasing concentrations of lipoprotein purified from the plasma of an individual with <1 ng/ml TGF-beta in plasma (individual I, Table 1). If the lipoprotein-associated fraction of TGF-beta is unavailable for binding, lipoproteins prepared from an individual with a very low plasma concentration of TGF-beta would be expected to reduce the binding of recombinant active TGF-beta to its receptors. The half maximal (ka) binding of recombinant TGF-beta to the recombinant extracellular domain of the type II TGF-beta receptor was previously determined to be 17±3 ng/ml (R2X; Grainger et al., Nature, 270, 460 (1994); Grainger et al., Clin. Chim. Acta, 235, 11 (1995)).
To measure the binding of TGF-beta to its receptor, the recombinant extracellular domain of the type II TGF-beta receptor (R2X), was coated onto ELISA plates (1 μg/well, Maxisorp plates, Gibco BRL). Wells were washed 3 times quickly in TBS and blocked with TBS containing 3% bovine serum albumin (BSA, fatty-acid free; Sigma) for 30 minutes. […] The amount of bound TGF-beta was detected with antibody BDA5 (R&D Systems) as previously described by Grainger et al., Clin. Chim. […]

[7] = target: T1, recombinant extracellular domain of the type II TGF-beta receptor (R2X); settings: no lipoprotein; previously determined; cited from earlier work
[8] = tested on: mink lung epithelial (MvLu) cells; assay: Inhibition of MvLu cell proliferation; type: cell-based
Description: It has previously been shown that TGF-beta inhibits the proliferation of mink lung epithelial (MvLu) cells in culture. […] J. Physiol., 265, C571 (1993). […] Addition of lipoprotein purified from the plasma of individual I caused a dose-dependent increase in the ID50 of TGF-beta.

GR = assay: MMTV LTR-CAT reporter in stably transfected SMCs; type: cell-based
Description: Because ER. interacts with NFkB transcription factor complexes in a similar manner to that for GR, agents which modulate ER/NFkB interaction should modulate the inflammatory response without activating GR. To test this hypothesis, SMCs in DMEM+10% FCS were transfected with a vector comprising the MMTV LTR promoter coupled to the chloramphenicol acetyl transferase (CAT) gene and the neomycin resistance gene (neo). A stably transfected line was selected using geneticin. When these cells were treated with dexamethasone, expression of the CAT gene was elevated 3.7±0.7 fold. […] Thus, ER/NFkB modulators would be expected to circumvent the undesirable side-effect profile associated with direct transcriptional activation by GR.

TGF-beta [9] = assay: TGF-beta production by human VSMCs in culture; type: cell-based; settings: cultured VSMCs
Method: The amount of TGF-beta present in medium conditioned on VSMCs in the presence and absence of aspirin was measured by ELISA.
The ED50 for TGF-beta production of the complex (Cu Aspirinate) was determined in cultured rat and human VSMCs.

[10] = TNF-alpha (20 ng/ml) and tamoxifen (5 μM) simultaneously

T1 sequence (P37173 23-166 limits assumed): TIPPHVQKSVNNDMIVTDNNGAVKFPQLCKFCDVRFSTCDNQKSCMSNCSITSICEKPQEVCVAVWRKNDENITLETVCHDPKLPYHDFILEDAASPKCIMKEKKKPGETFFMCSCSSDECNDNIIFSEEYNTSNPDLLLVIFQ

TNF-alpha
NFkB translocated to the nucleus (NFkB; 20 ng/ml, 6 hours at 37° C.): > 80%
increase in NFkB activity (NFkB; 20 ng/ml, 6 hours, luciferase reporter): 19 fold

CC/C(=C(\c1ccc(I)cc1)c1ccc(OCCN2CCCC2)cc1)c1ccccc1 [idoxifene, (E)-1-[4-[2-(N-pyrrolidino)ethoxy]phenyl]-1-(4-iodophenyl)-2-phenyl-1-butene]
covalent (hepatic) DNA adducts [1]: absence of DNA adducts
residual estrogenic activity compared with TMX [2]: reduced residual estrogenic activity

CC/C(=C(\c1ccccc1)c1ccc(OCCN(C)C)cc1)c1ccccc1 [TMX, trans-2-[4-(1,2-diphenyl-1-butenyl)phenoxy]-N,N-dimethylethylamine]
inhibition at 5 µM (NFkB; Homo sapiens, read-out: inhibition of TNF-alpha-induced NFkB activity): 86 ± 12%
NFkB translocated to the nucleus (NFkB; [10]): less than 10%
stimulation of NFkB activity (NFkB; [10]): less than 3 fold
change in NFkB activity (NFkB; tamoxifen alone): no detectable change
lowering of VLDL [3]: seven fold
long-term carcinogenicity [1]: liver carcinogenicity
HDL-cholesterol ([4]; Day 10): 0.77 ± 0.04 mM
LDL-cholesterol ([4]; Day 10): 4.16 ± 0.25 mM
Lipoprotein(a) ([4]; Day 10): 42.4 ± 9.5 mg/dL
Plasma PAI-I antigen ([4]; Day 10): 35.9 ± 5.4 ng/mL
Total plasma triglycerides ([4]; Day 10): 2.28 ± 0.35 mM
VLDL-cholesterol ([4]; Day 10): 0.84 ± 0.11 mM
Total plasma cholesterol ([4]; Day 10, mean ± standard error, 15 patients): 5.95 ± 0.29 mM
concentration of HDL-cholesterol, change ([4]; after 10 days): unchanged
concentration of LDL-cholesterol, change ([4]; after 10 days): unchanged
decrease in total plasma cholesterol below baseline ([4]; after 10 days): 6%
reduction of cholesterol in the VLDL fraction below baseline ([4]; after 10 days): 18%
lowering of total plasma triglyceride concentration ([4]; after 10 days, not statistically significant (p=0.22)): 18%
decrease in plasma concentration of Lp(a) ([4]; day 3 vs baseline): 27%
reduction in Lp(a) concentration ([4]; day 10 vs baseline): 31%
Plasma (a + 1) TGF-β, Method (A) (TGF-beta [5]; Day 10, BDA19/BDA5 sandwich ELISA): 7.7 ± 1.5 ng/mL
Plasma (a + 1) TGF-β, Method (E) (TGF-beta [5]; Day 10, BioTrak, acid alone): 2.3 ± 0.1 ng/mL
Plasma (a + 1) TGF-β, Method (D) (TGF-beta [5]; Day 10, BioTrak, acid/urea): 2.4 ± 0.1 ng/mL
Plasma (a + 1) TGF-β, Method (F) (TGF-beta [5]; Day 10, Genzyme, acid/urea): 5.2 ± 0.3 ng/mL
Plasma (a + 1) TGF-β, Method (G) (TGF-beta [5]; Day 10, Promega, acid alone): 0.2 ± 0.1 ng/mL
Plasma (a + 1) TGF-β, Method (C) (TGF-beta [5]; Day 10, Quantikine, acid alone): 0.62 ± 0.07 ng/mL
Plasma (a + 1) TGF-β, Method (B) (TGF-beta [5]; Day 10, Quantikine, acid/urea): 1.2 ± 0.2 ng/mL
change in plasma (a + 1) TGF-β, Method (A) (TGF-beta [5]; Day 10 vs Day 0): (+24%)
change in plasma (a + 1) TGF-β, Method (B) (TGF-beta [5]; Day 10 vs Day 0): (+71%)
change in plasma (a + 1) TGF-β, Method (C) (TGF-beta [5]; Day 10 vs Day 0): (+148%)
change in plasma (a + 1) TGF-β, Method (D) (TGF-beta [5]; Day 10 vs Day 0): (+20%)
change in plasma (a + 1) TGF-β, Method (E) (TGF-beta [5]; Day 10 vs Day 0): (+29%)
change in plasma (a + 1) TGF-β, Method (F) (TGF-beta [5]; Day 10 vs Day 0): (+59%)
change in plasma (a + 1) TGF-β, Method (G) (TGF-beta [5]; Day 10 vs Day 0): (+100%)
proportion of plasma TGF-beta that is lipoprotein-associated (TGF-beta [5]; after 10 days of TMX therapy, Quantikine ELISA): 25±3%
median increase in (a+1) TGF-beta (TGF-beta [5]; by day 10): 59%
% Lesion Suppression (apoE knockout mice): 99* %

CN(C)CCOc1ccc(/C(=C(/CCCl)c2ccccc2)c2ccccc2)cc1 [Toremifene, toremifene]
covalent (hepatic) DNA adducts [1]: very low level
long-term carcinogenicity [1]: non-carcinogenic

recombinant TGF-beta: recombinant active TGF-beta1 (R&D Systems)
apparent ka for TGF-beta binding to R2X [6]: 42 ± 6 ng/mL
half maximal (ka) binding of recombinant TGF-beta to R2X [7]: 17 ± 3 ng/mL
MvLu cell ID50 ([8]; 3 mM total cholesterol lipoprotein added, maximal): 0.52 ± 0.08 ng/mL
MvLu cell ID50 ([8]; no lipoprotein, n=6): 0.12 ± 0.04 ng/mL

C[C@@H]1C[C@H]2[C@@H]3CCC4=CC(=O)C=C[C@]4(C)[C@@]3(F)[C@@H](O)C[C@]2(C)[C@@]1(O)C(=O)CO [dexamethasone]
elevation of expression of the CAT gene (GR): 3.7±0.7 fold

CC(=O)Oc1ccccc1C(=O)[O-].CC(=O)Oc1ccccc1C(=O)[O-].[Cu+2] [Cu aspirinate, copper II (acetyl salicylate)2]
potency at stimulating TGF-beta relative to aspirin (TGF-beta [9]): almost two orders of magnitude more potent

CC/C(=C(/c1ccc(I)cc1)c1ccc(OCCN(C)C)cc1)c1ccccc1 [4-iodotamoxifen]
covalent (hepatic) DNA adducts [1]: absence of DNA adducts

Reference: patent publication US6410587B1, “Compounds and therapies for the prevention of vascular and non-vascular pathologies” (NeoRx Corporation, priority 1997, dated 2002)
